# Data reported in publication PMC2248166, “Quantitative peptide binding motifs for 19 human and mouse MHC class I molecules derived using positional scanning combinatorial peptide libraries” (Immunome Research, 2008).
# Legend:
# Type in all cases: binding
# [1] = target: HLA B*5802 (Homo sapiens, UniProt P01889, A329T/C349S/D201E/D98Y/E176V/E187L/E204Q/E69T/G107R/I218V/I90N/K202T/L105A/N104I/N87E/Q89R/Q94S/R106L/R155S/R180L/R86G/S101N/S121W/S35A/S48A/V127L/V306I/V36M/Y140S/Y91M)
# [2] = target: HLA B*1503 (Homo sapiens, UniProt P01889, A329T/A93T/A95T/C349S/D201E/D98Y/E187L/E204Q/K202T/N87E/Q94N/R155S/R180L/S121R/S35A/V306I/V36M/Y140S/Y91S); assay: biochemical
# [3] = target: HLA B*3501 (Homo sapiens, UniProt P01889, A329T/A93T/A95T/C349S/D201E/D98Y/E176V/E187L/E204Q/E69T/I218V/K202T/L119I/Q94N/R155S/R180L/S121R/S35A/S48A/T118I/V127L/V306I/V36M/Y140S/Y91F)
# [4] = target: H-2 D^d (Mus musculus, UniProt P01900)
# [5] = target: HLA A*3001 (Homo sapiens, UniProt P04439, D140H/D185E/E176W/F33S/G80R/H175R/K168Q/R138E/R41S); assay: biochemical
# [6] = target: HLA B*5401 (Homo sapiens, UniProt P01889, A329T/C349S/D138N/D201E/E176V/E187T/E204Q/E69G/I76V/K202T/L119W/R155S/R180L/S121T/S35A/S48A/V127L/V306I/V36M/Y140L)
# [7] = target: HLA A*3201 (Homo sapiens, UniProt P04439, A270S/D101S/D185E/E176V/E277Q/F133L/G103R/G107R/G231S/H175R/I121M/I218V/I322F/K168Q/L105A/L300P/L318F/M331R/P208A/P217A/Q94H/R106L/R138Q/S129P/T104I/T323A/T345S/V100E/V321M/V358M); assay: biochemical
# [8] = target: HLA B*5301 (Homo sapiens, UniProt P01889, A329T/A93T/A95T/C349S/D201E/D98Y/E176V/E187L/E204Q/E69T/G107R/I218V/K202T/L105A/L119I/N104I/Q94N/R106L/R155S/R180L/S101N/S121R/S35A/S48A/T118I/V127L/V306I/V36M/Y140S/Y91F)
# [9] = target: HLA B*0801 (Homo sapiens, UniProt P01889, A93T/A95T/D138N/E176V/E187T/K202T/Q94N/R180D/S35A/V36M/Y33D/Y91F); assay: biochemical
# [10] = target: H-2 D^b (Mus musculus, UniProt P01899)
# [11] = target: H-2 K^d (Mus musculus, UniProt P01902)
# [12] = target: H-2 K^k (Mus musculus, UniProt P04223)
# [13] = target: HLA B*5101 (Homo sapiens, UniProt P01889, A329T/A93T/A95T/C349S/D138N/D201E/D98Y/E187L/E204Q/E69T/G107R/I218V/K202T/L105A/L119W/N104I/Q94N/R106L/R155S/R180L/S101N/S121T/S35A/S48A/V306I/V36M/Y195H/Y91F)
# [14] = target: HLA B*1501 (Homo sapiens, UniProt P01889, A329T/A93T/A95T/C349S/D201E/D98Y/E187L/E204Q/E69M/E70A/K202T/N87E/Q94N/R155S/R180W/S121R/S35A/S48A/V306I/V36M/Y140S/Y91S); assay: biochemical
# [15] = target: HLA A*6802 (Homo sapiens, UniProt P04439, A269V/D140Y/D185E/E176V/E277Q/E87N/F33Y/G231S/I121R/I166T/I218V/L180W/L300P/L318F/N151K/P208A/P217A/Q86R/R138H/R169H/S129P/T345S/V36M)
# [16] = target: HLA B*5801 (Homo sapiens, UniProt P01889, A329T/C349S/D201E/D98Y/E176V/E187L/E204Q/E69T/G107R/I218V/I90N/K202T/L105A/L119I/N104I/N87E/Q89R/Q94S/R106L/R155S/R180L/R86G/S101N/S121R/S35A/S48A/T118I/V127L/V306I/V36M/Y140S/Y91M)
# Chain of H-2 D^d (P01900 whole entry, looked up): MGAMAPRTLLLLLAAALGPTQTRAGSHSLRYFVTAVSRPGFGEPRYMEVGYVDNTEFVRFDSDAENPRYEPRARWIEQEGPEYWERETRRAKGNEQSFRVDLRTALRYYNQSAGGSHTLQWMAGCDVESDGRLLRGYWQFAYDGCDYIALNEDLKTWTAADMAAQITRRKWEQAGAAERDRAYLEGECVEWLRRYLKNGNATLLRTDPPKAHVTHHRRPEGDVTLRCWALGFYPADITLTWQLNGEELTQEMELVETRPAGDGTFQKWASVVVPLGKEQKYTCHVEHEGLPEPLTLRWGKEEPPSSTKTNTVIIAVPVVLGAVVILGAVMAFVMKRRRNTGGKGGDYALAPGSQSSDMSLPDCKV
# Chain of H-2 K^k (P01887 21-119): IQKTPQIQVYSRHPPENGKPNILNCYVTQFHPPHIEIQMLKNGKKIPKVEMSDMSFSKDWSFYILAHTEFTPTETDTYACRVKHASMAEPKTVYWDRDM
# Chain of H-2 K^k (P04223 22-369): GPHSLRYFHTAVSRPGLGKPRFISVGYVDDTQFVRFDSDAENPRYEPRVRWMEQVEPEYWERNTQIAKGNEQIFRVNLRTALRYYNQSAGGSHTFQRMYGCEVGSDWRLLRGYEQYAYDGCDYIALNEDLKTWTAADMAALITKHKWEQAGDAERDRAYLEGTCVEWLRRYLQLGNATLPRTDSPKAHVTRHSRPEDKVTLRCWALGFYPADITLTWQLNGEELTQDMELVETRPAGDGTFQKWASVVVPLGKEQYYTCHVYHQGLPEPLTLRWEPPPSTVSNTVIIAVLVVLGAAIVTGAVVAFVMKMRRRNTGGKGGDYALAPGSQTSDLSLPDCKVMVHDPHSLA
# Chain of H-2 K^d (P01887 21-119): as the sequence (P01887 21-119) above
# Chain of H-2 K^d (P01902 22-368): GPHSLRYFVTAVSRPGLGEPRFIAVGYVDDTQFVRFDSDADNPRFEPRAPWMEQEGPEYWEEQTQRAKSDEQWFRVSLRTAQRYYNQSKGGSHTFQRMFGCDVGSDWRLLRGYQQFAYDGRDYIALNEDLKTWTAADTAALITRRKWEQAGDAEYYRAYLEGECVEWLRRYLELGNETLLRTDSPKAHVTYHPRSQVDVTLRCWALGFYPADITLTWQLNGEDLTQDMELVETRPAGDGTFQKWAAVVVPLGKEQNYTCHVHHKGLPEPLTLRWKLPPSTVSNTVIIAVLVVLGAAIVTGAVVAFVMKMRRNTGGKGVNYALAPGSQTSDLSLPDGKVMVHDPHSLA
# Chain of H-2 D^b (P01887 21-119): as the sequence (P01887 21-119) above
# Chain of H-2 D^b (P01899 25-362): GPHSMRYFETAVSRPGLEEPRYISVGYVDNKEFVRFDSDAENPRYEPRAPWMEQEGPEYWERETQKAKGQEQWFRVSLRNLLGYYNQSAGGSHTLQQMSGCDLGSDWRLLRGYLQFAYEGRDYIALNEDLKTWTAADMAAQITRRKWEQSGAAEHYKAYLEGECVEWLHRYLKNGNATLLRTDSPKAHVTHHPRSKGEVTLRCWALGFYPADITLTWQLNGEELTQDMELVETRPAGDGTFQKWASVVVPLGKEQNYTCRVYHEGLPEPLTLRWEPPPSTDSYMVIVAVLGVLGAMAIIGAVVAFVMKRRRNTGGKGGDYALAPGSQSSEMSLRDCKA
Sequence,Normalized average relative binding affinity(ARB) [1],Normalized average relative binding affinity(ARB) [2],Normalized average relative binding affinity(ARB) [3],Normalized average relative binding affinity(ARB) [4],Normalized average relative binding affinity(ARB) [5],Normalized average relative binding affinity(ARB) [6],Normalized average relative binding affinity(ARB) [7],Normalized average relative binding affinity(ARB) [8],Normalized average relative binding affinity(ARB) [9],Normalized average relative binding affinity(ARB) [10],Normalized average relative binding affinity(ARB) [11],Normalized average relative binding affinity(ARB) [12],Normalized average relative binding affinity(ARB) [13],Normalized average relative binding affinity(ARB) [14],Normalized average relative binding affinity(ARB) [15],Normalized average relative binding affinity(ARB) [16]
XXXXXXXAX [3064.0141],0.31,0.27,1.0,0.93,0.53,0.50,0.99,0.80,0.95,0.50,1.0,0.82,0.52,0.36,1.0,0.14
XXXXSXXXX [3064.0096],0.063,0.47,0.27,0.21,1.0,0.18,0.20,0.16,0.065,0.079,1.0,0.18,0.35,0.71,0.34,0.31
XXXXLXXXX [3064.0090],0.063,0.090,0.23,0.28,0.14,0.15,0.57,0.18,0.062,0.10,0.18,0.11,0.30,0.69,0.43,0.25
XXXXXXXNX [3064.0152],0.27,0.13,0.14,0.49,0.54,0.076,0.42,0.21,0.086,0.099,0.40,0.066,0.33,0.12,0.18,0.25
XXXXNXXXX [3064.0092],0.31,0.26,1.0,0.19,0.12,0.34,0.16,0.17,0.037,1.0,0.21,0.090,0.40,0.56,0.30,0.13
XXXXAXXXX [3064.0081],0.56,1.0,0.57,0.37,0.48,0.29,0.14,0.13,0.029,0.046,0.37,0.14,1.0,0.64,0.48,0.28
XXXXXXSXX [3064.0136],0.044,0.32,0.22,0.038,0.042,0.098,0.14,0.087,0.35,0.34,0.92,0.16,0.51,0.65,0.40,0.14
XXXPXXXXX [3064.0073],0.50,0.67,0.11,0.15,0.59,0.13,0.095,0.023,0.34,0.15,0.48,0.41,0.55,0.22,0.37,1.0
